# Test results from the SangsterLogP compilation.
row,SMILES,logP
1,CCc1ccc(C)c(C)c1,4.5
2,CCc1c(C)cccc1C,4.28
3,CCC(C)c1ccccc1 (stereo not given),4.57
4,CCc1cccc(C)c1,3.98
5,Cc1cccc(C(C)C)c1,4.5
6,CCc1ccc(C)cc1C,4.47
7,CCCCCCCCCc1ccccc1,7.11
8,Cc1ccc(C)cc1,3.42
9,CCCc1ccc(C)cc1,4.6
10,CCCc1ccccc1C,4.5
11,Cc1ccc(C)c(C)c1,3.91
12,Cc1cccc(C)c1C,3.78
13,CCCc1cccc(C)c1,4.67
14,CC(C)Cc1ccccc1,4.68
15,CCc1cc(C)ccc1C,4.43
16,CCc1cccc(C)c1C,4.34
17,CCc1cc(C)cc(C)c1,4.55
18,CCc1ccccc1C,3.86
19,Cc1ccccc1C(C)C,4.38
20,CCc1ccc(C)cc1,4
